# Source: patent US10369138B2, “Monobactam organic compounds for the treatment of bacterial infections” (Novartis AG, priority 2014, dated 2019)
# Where two headings read alike, the source gives them in different places.
# Assays:
# E. coli strain 25922 = assay: MIC by broth microdilution, E. coli strain 25922; assay type: cell-based
# Method in brief: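 CLSI broth microdilution in cation-adjusted Mueller-Hinton broth, inoculum about 5×10^5 CFU/mL, 10% DMSO from the diluted series, 20 h at 35-37° C. MIC is the lowest concentration preventing visible growth, read by eye and at 600 nm.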
# E. coli containing KPC-2 = assay: MIC by broth microdilution, E. coli containing KPC-2 (Ec KPC2 Iso); assay type: cell-based; conditions: Escherichia coli, read-out: Ec KPC2 Iso (MIC), E. coli containing KPC-2 (carbapenemase from Klebsiella pneumoniae)
# Method in brief: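 Host E. coli BW25113 pspB carrying multicopy pBAD18-kan plasmid with constitutive TEM-promoter KPC-2 expression (periplasmic signal sequence); broth microdilution per CLSI in cation-adjusted Mueller-Hinton broth, inoculum ~5×10^5 CFU/mL, compounds twofold serially diluted from DMSO masters (10% DMSO in dilution series added).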
# [1] = Escherichia coli, 25922, E. coli strain 25922, read-out: Ec 25922 (MIC)
SMILES,MIC (E. coli strain 25922; [1]) [µg/mL],MIC (E. coli containing KPC-2) [µg/mL],"MIC (E. coli strain 25922; Escherichia coli, 25922, read-out: Ec 25922 (MIC)) [µg/mL]"
"Cc1ncnn1C[C@@H]1[C@H](NC(=O)/C(=N\OC(C)(C)C(=O)O)c2csc(N)n2)C(=O)N1S(=O)(=O)O [Example 61, 2-(((Z)-(1-(2-aminothiazol-4-yl)-2-(((2R,3S)-2-((5-methyl-1H-1,2,4-triazol-1-yl)methyl)-4-oxo-1-sulfoazetidin-3-yl)amino)-2-oxoethylidene)amino)oxy)-2-methylpropanoic acid]",8,2,
"Cn1cnn(C[C@@H]2[C@H](NC(=O)/C(=N\OC(C)(C)C(=O)O)c3csc(N)n3)C(=O)N2S(=O)(=O)O)c1=O [Example 98, 2-(((Z)-(1-(2-aminothiazol-4-yl)-2-(((2R,3S)-2-((4-methyl-5-oxo-4,5-dihydro-1H-1,2,4-triazol-1-yl)methyl)-4-oxo-1-sulfoazetidin-3-yl)amino)-2-oxoethylidene)amino)oxy)-2-methylpropanoic acid]",2,0.5,
"CC(C)(O/N=C(\C(=O)N[C@@H]1C(=O)N(S(=O)(=O)O)[C@@H]1Cn1cc(CN)nn1)c1csc(N)n1)C(=O)O [Example 44, 2-(((Z)-(2-(((2R,3S)-2-((4-(aminomethyl)-1H-1,2,3-triazol-1-yl)methyl)-4-oxo-1-sulfoazetidin-3-yl)amino)-1-(2-aminothiazol-4-yl)-2-oxoethylidene)amino)oxy)-2-methylpropanoic acid]",0.67,1.5,
"CC(C)(O/N=C(\C(=O)N[C@@H]1C(=O)N(S(=O)(=O)O)[C@@H]1Cn1cc[nH]c1=O)c1csc(N)n1)C(=O)O [Example 87, 2-(((Z)-(1-(2-aminothiazol-4-yl)-2-oxo-2-(((3S,4R)-2-oxo-4-((2-oxo-2,3-dihydro-1H-imidazol-1-yl)methyl)-1-sulfoazetidin-3-yl)amino)ethylidene)amino)oxy)-2-methylpropanoic acid]",1,0.5,
"CC(C)(O/N=C(\C(=O)N[C@@H]1C(=O)N(S(=O)(=O)O)[C@@H]1Cn1cc(CO)nn1)c1csc(N)n1)C(=O)O [Example 47, 2-(((Z)-(1-(2-aminothiazol-4-yl)-2-(((2R,3S)-2-((4-(hydroxymethyl)-1H-1,2,3-triazol-1-yl)methyl)-4-oxo-1-sulfoazetidin-3-yl)amino)-2-oxoethylidene)amino)oxy)-2-methylpropanoic acid]",2,5,
"CC(C)(O/N=C(\C(=O)N[C@@H]1C(=O)N(S(=O)(=O)O)[C@@H]1Cn1ncc(CNS(N)(=O)=O)n1)c1csc(N)n1)C(=O)O [Example 65, 2-(((Z)-(1-(2-aminothiazol-4-yl)-2-oxo-2-(((3S,4R)-2-oxo-4-((4-((sulfamoylamino)methyl)-2H-1,2,3-triazol-2-yl)methyl)-1-sulfoazetidin-3-yl)amino)ethylidene)amino)oxy)-2-methylpropanoic acid]",64,64,
"CN(Cc1cnn(C[C@@H]2[C@H](NC(=O)/C(=N\OC3(C(=O)O)CC3)c3csc(N)n3)C(=O)N2S(=O)(=O)O)n1)C(=N)NCCCN [Example 148, 1-(((Z)-(2-(((2R,3S)-2-((4-((3-(3-aminopropyl)-1-methylguanidino)methyl)-2H-1,2,3-triazol-2-yl)methyl)-4-oxo-1-sulfoazetidin-3-yl)amino)-1-(2-aminothiazol-4-yl)-2-oxoethylidene)amino)oxy)cyclopropanecarboxylic acid]",1,1,
"NCCCNCc1cn(C[C@@H]2[C@H](NC(=O)/C(=N\OC3(C(=O)O)CC3)c3csc(N)n3)C(=O)N2S(=O)(=O)O)nn1 [Example 69, 1-(((Z)-(2-(((2R,3S)-2-((4-(((3-aminopropyl)amino)methyl)-1H-1,2,3-triazol-1-yl)methyl)-4-oxo-1-sulfoazetidin-3-yl)amino)-1-(2-aminothiazol-4-yl)-2-oxoethylidene)amino)oxy)cyclopropanecarboxylic acid compound with formic acid (1:1)]",,0.125,0.25
"CC(NC(=N)NCCCN)c1cnn(C[C@@H]2[C@H](NC(=O)/C(=N\OC3(C(=O)O)CC3)c3csc(N)n3)C(=O)N2S(=O)(=O)O)n1 (stereo partly drawn) [Example 145, 1-(((Z)-(2-(((2R,3S)-2-((4-(1-(3-(3-aminopropyl)guanidino)ethyl)-2H-1,2,3-triazol-2-yl)methyl)-4-oxo-1-sulfoazetidin-3-yl)amino)-1-(2-aminothiazol-4-yl)-2-oxoethylidene)amino)oxy)cyclopropanecarboxylic acid]",0.5,0.5,
"CN(CCCN)Cc1cnn(C[C@@H]2[C@H](NC(=O)/C(=N\OC3(C(=O)O)CC3)c3csc(N)n3)C(=O)N2S(=O)(=O)O)n1 [Example 115, 1-(((Z)-(2-(((2R,3S)-2-((4-(((3-aminopropyl)(methyl)amino)methyl)-2H-1,2,3-triazol-2-yl)methyl)-4-oxo-1-sulfoazetidin-3-yl)amino)-1-(2-aminothiazol-4-yl)-2-oxoethylidene)amino)oxy)cyclopropanecarboxylic acid]",0.125,0.25,
"CC(C)(CCN)NCc1cnn(C[C@@H]2[C@H](NC(=O)/C(=N\OC3(C(=O)O)CC3)c3csc(N)n3)C(=O)N2S(=O)(=O)O)n1 [Example 132, 1-(((Z)-(2-(((2R,3S)-2-((4-(((4-amino-2-methylbutan-2-yl)amino)methyl)-2H-1,2,3-triazol-2-yl)methyl)-4-oxo-1-sulfoazetidin-3-yl)amino)-1-(2-aminothiazol-4-yl)-2-oxoethylidene)amino)oxy)cyclopropanecarboxylic acid]",1,1,
"Nc1nc(/C(=N/OC2(C(=O)O)CC2)C(=O)N[C@@H]2C(=O)N(S(=O)(=O)O)[C@@H]2Cn2ncc(CNCC3CNC3)n2)cs1 [Example 85, 1-(((Z)-(1-(2-aminothiazol-4-yl)-2-(((2R,3S)-2-((4-(((azetidin-3-ylmethyl)amino)methyl)-2H-1,2,3-triazol-2-yl)methyl)-4-oxo-1-sulfoazetidin-3-yl)amino)-2-oxoethylidene)amino)oxy)cyclopropanecarboxylic acid]",0.5,0.5,
"N=C(NC1CCNCC1)c1ccc(OC[C@H](O/N=C(\C(=O)N[C@@H]2C(=O)N(S(=O)(=O)O)[C@@H]2Cn2ncc(CN)n2)c2csc(N)n2)C(=O)O)cc1 [Example 84, (S)-2-(((Z)-(2-(((2R,3S)-2-((4-(aminomethyl)-2H-1,2,3-triazol-2-yl)methyl)-4-oxo-1-sulfoazetidin-3-yl)amino)-1-(2-aminothiazol-4-yl)-2-oxoethylidene)amino)oxy)-3-(4-(N-(piperidin-4-yl)carbamimidoyl)phenoxy)propanoic acid]",0.5,0.5,
"CC(C)(O/N=C(\C(=O)N[C@@H]1C(=O)N(S(=O)(=O)O)[C@@H]1CN1CCN(CCN)C1=O)c1csc(N)n1)C(=O)O [Example 70, 2-(((Z)-(2-(((2R,3S)-2-((3-(2-aminoethyl)-2-oxoimidazolidin-1-yl)methyl)-4-oxo-1-sulfoazetidin-3-yl)amino)-1-(2-aminothiazol-4-yl)-2-oxoethylidene)amino)oxy)-2-methylpropanoic acid]",8,8,
"CC(C)(O/N=C(\C(=O)N[C@@H]1C(=O)N(S(=O)(=O)O)[C@@H]1CN1CC[C@@H](NC(=N)N)C1=O)c1csc(N)n1)C(=O)O [Example 88, 2-(((Z)-(1-(2-aminothiazol-4-yl)-2-(((2R,3S)-2-(((R)-3-guanidino-2-oxopyrrolidin-1-yl)methyl)-4-oxo-1-sulfoazetidin-3-yl)amino)-2-oxoethylidene)amino)oxy)-2-methylpropanoic acid]",2,4,
"Cc1cnn(C[C@@H]2[C@H](NC(=O)/C(=N\OC(C)(C)C(=O)O)c3csc(N)n3)C(=O)N2S(=O)(=O)O)n1 [Example 55, 2-(((Z)-(1-(2-aminothiazol-4-yl)-2-(((2R,3S)-2-((4-methyl-2H-1,2,3-triazol-2-yl)methyl)-4-oxo-1-sulfoazetidin-3-yl)amino)-2-oxoethylidene)amino)oxy)-2-methylpropanoic acid]",16,4,
"C[C@H](O/N=C(\C(=O)N[C@@H]1C(=O)N(S(=O)(=O)O)[C@@H]1Cn1cncn1)c1csc(N)n1)C(=O)O [Example 29, (S)-2-(((Z)-(2-(((2R,3S)-2-((1H-1,2,4-triazol-1-yl)methyl)-4-oxo-1-sulfoazetidin-3-yl)amino)-1-(2-aminothiazol-4-yl)-2-oxoethylidene)amino)oxy)propanoic acid]",0.25,1,
"Nc1nc(/C(=N/OC2(C(=O)O)CC2)C(=O)N[C@@H]2C(=O)N(S(=O)(=O)O)[C@@H]2Cn2cncn2)cs1 [Example 18, 1-(((Z)-(2-(((2R,3S)-2-((1H-1,2,4-triazol-1-yl)methyl)-4-oxo-1-sulfoazetidin-3-yl)amino)-1-(2-aminothiazol-4-yl)-2-oxoethylidene)amino)oxy)cyclopropanecarboxylic acid]",0.5,0.25,
"NCc1nn(C[C@@H]2[C@H](NC(=O)/C(=N\OC3(C(=O)O)CC3)c3csc(N)n3)C(=O)N2S(=O)(=O)O)nc1CN [Example 109, 1-(((Z)-(1-(2-aminothiazol-4-yl)-2-(((2R,3S)-2-((4,5-bis(aminomethyl)-2H-1,2,3-triazol-2-yl)methyl)-4-oxo-1-sulfoazetidin-3-yl)amino)-2-oxoethylidene)amino)oxy)cyclopropanecarboxylic acid]",0.125,0.25,
